Measured values as given in US9834542B2, “LXR modulators” (BRISTOL-MYERS SQUIBB COMPANY, priority 2013, dated 2017).

Target: T1, LXRβ (Homo sapiens, UniProt P55055)
T1 construct: Co-transfection expression plasmids, comprising full-length LXRα (pCMX-h LXRα[…] or LXRβ (pCMX-hLXRβ)); expressed in transfected cells; host or cells: CV-1 African Green Monkey Kidney Cells
T1 sequence (P55055 1-460): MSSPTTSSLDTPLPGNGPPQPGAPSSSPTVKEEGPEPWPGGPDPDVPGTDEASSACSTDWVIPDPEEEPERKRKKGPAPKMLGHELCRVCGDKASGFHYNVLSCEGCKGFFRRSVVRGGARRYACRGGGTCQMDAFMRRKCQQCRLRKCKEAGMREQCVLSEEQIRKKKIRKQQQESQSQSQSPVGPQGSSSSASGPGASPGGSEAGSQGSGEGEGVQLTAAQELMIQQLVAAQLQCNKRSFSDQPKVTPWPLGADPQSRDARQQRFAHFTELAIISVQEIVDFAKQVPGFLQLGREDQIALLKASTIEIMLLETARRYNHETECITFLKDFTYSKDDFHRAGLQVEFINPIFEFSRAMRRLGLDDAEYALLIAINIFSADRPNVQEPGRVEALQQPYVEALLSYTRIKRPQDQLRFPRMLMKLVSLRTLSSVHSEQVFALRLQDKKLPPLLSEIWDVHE
T1 sequence (P19793 1-462 partner): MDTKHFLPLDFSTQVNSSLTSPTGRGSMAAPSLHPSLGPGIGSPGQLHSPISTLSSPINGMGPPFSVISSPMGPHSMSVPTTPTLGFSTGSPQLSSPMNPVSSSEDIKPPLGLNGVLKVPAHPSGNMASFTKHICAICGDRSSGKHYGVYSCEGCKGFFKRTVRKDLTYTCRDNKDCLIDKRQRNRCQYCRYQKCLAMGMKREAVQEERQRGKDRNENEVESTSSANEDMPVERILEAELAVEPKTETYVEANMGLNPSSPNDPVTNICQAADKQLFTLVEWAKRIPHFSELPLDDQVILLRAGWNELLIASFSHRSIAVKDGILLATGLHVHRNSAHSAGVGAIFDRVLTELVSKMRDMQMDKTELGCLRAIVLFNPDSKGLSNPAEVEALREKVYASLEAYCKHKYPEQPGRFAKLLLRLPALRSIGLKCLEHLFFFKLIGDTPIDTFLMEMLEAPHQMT
Test: Co-transfection assay (LXRE luciferase reporter), LXRβ
Type: cell-based
Conditions: for EC50: CV-1 cells transfected with pCMX-hLXRβ and LXREx1-Tk-Luciferase, 20 hours incubation; for Emax: LXRβ co-transfection, relative to high control 1-(2,4-difluorobenzyl)-2-oxo-6-(4-phenoxyphenyl)-4-(trifluoromethyl)-1,2-dihydropyridine-3-carbonitrile, read-out: % Efficacy
Summary of the method: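 Luciferase signal from an LXREx1-Tk reporter was measured after transfected CV-1 cells (full-length hLXRβ, endogenous RXR) were treated with compounds for 20 h at 37 °C, ≤0.5% DMSO. EC50 came from four-parameter fits of 11-point ½-log curves; % efficacy versus a reference agonist maximum.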

Structure (SMILES) | EC50 | Emax
Cc1nc(C(F)(F)F)cn1-c1ccc(-c2cccc(S(C)(=O)=O)c2)cc1-n1nncc1-c1ccc(Cl)c(C#N)c1 [Example 41, 2-chloro-5-(1-{3′-(methylsulfonyl)-4-[2-methyl-4-(trifluoromethyl)-1H-imidazol-1-yl]biphenyl-3-yl}-1H-1,2,3-triazol-5-yl)benzonitrile] | 1050 nM | 74%
COc1ccc(-c2cnnn2-c2cc(-c3cccc(S(C)(=O)=O)c3)ccc2-n2cc(C(F)(F)F)nc2C)cc1OC(F)F [Example 42, 5-{3-[(difluoromethyl)oxy]-4-(methyloxy)phenyl}-1-{3′-(methylsulfonyl)-4-[2-methyl-4-(trifluoromethyl)-1H-imidazol-1-yl]biphenyl-3-yl}-1H-1,2,3-triazole] | 1060 nM | 43%
Cc1nc(C(F)(F)F)cn1-c1ccc(-c2cccc(S(C)(=O)=O)c2)cc1-n1nncc1-c1ccc(F)cc1 [Example 43, 5-(4-fluorophenyl)-1-{3′-(methylsulfonyl)-4-[2-methyl-4-(trifluoromethyl)-1H-imidazol-1-yl]biphenyl-3-yl}-1H-1,2,3-triazole] | 1140 nM | 85%
Cc1nc(C(F)(F)F)cn1-c1ccc(-c2cccc(S(N)(=O)=O)c2)cc1-n1nncc1-c1ccc(OC(F)(F)F)cc1 [Example 44, 4′-[2-methyl-4-(trifluoromethyl)-1H-imidazol-1-yl]-3′-(5-{4-[(trifluoromethyl)oxy]phenyl}-1H-1,2,3-triazol-1-yl)biphenyl-3-sulfonamide] | 1270 nM | 95%
Cc1nc(C(F)(F)F)cn1-c1ccc(-c2cccc(S(C)(=O)=O)c2)cc1-n1nncc1-c1ccc2[nH]ccc2c1 [Example 45, 5-(1-{3′-(methylsulfonyl)-4-[2-methyl-4-(trifluoromethyl)-1H-imidazol-1-yl]biphenyl-3-yl}-1H-1,2,3-triazol-5-yl)-1H-indole] | 1840 nM | 53%
Cc1nc(C(F)(F)F)cn1-c1ccc(-c2cccc(S(C)(=O)=O)c2)cc1-n1nncc1-c1ccc(F)c(OC(F)(F)F)c1 [Example 46, 5-{4-fluoro-3-[(trifluoromethyl)oxy]phenyl}-1-{3′-(methylsulfonyl)-4-[2-methyl-4-(trifluoromethyl)-1H-imidazol-1-yl]biphenyl-3-yl}-1H-1,2,3-triazole] | 2310 nM | 62%
Cc1nc(C(F)(F)F)cn1-c1ccc(-c2cccc(S(C)(=O)=O)c2)cc1-n1nncc1-c1ccc(C#N)cc1 [Example 47, 4-(1-{3′-(methylsulfonyl)-4-[2-methyl-4-(trifluoromethyl)-1H-imidazol-1-yl]biphenyl-3-yl}-1H-1,2,3-triazol-5-yl)benzonitrile] | 2540 nM | 64%
Cc1nc(C(F)(F)F)c(Cl)n1-c1ccc(-c2cc(Cl)c(CO)c(S(C)(=O)=O)c2)cc1-n1nncc1-c1ccc(OC(F)(F)F)cc1 [Example 60, {3-chloro-4′-[5-chloro-2-methyl-4-(trifluoromethyl)-1H-imidazol-1-yl]-5-(methylsulfonyl)-3′-(5-{4-[(trifluoromethyl)oxy]phenyl}-1H-1,2,3-triazol-1-yl)biphenyl-4-yl}methanol] | 245 nM | 121%

Now those with a lower EC50, led by results:

EC50 | Emax | Structure (SMILES)
218 nM | 95% | Cc1nc(C(F)(F)F)c(Cl)n1-c1ccc(-c2cccc(S(C)(=O)=O)c2)cc1-n1nncc1-c1ccc(Cl)cc1Cl [Example 59, 1-{4-[5-chloro-2-methyl-4-(trifluoromethyl)-1H-imidazol-1-yl]-3′-(methylsulfonyl)biphenyl-3-yl}-5-(2,4-dichlorophenyl)-1H-1,2,3-triazole]
217 nM | 78% | Cc1nc(C(F)(F)F)cn1-c1ccc(-c2cc(F)c(CO)c(S(C)(=O)=O)c2)cc1-n1nncc1-c1ccc(Cl)cc1 [Example 58, {3′-[5-(4-chlorophenyl)-1H-1,2,3-triazol-1-yl]-3-fluoro-5-(methylsulfonyl)-4′-[2-methyl-4-(trifluoromethyl)-1H-imidazol-1-yl]biphenyl-4-yl}methanol]
215 nM | 82% | Cc1cc(OC(F)(F)F)ccc1-c1cnnn1-c1cc(-c2cccc(S(C)(=O)=O)c2)ccc1-n1cc(C(F)(F)F)nc1C [Example 57, 1-{3′-(methylsulfonyl)-4-[2-methyl-4-(trifluoromethyl)-1H-imidazol-1-yl]biphenyl-3-yl}-5-{2-methyl-4-[(trifluoromethyl)oxy]phenyl}-1H-1,2,3-triazole]
180 nM | 110% | Cc1nc(C(F)(F)F)c(Cl)n1-c1ccc(-c2cccc(S(C)(=O)=O)c2)cc1-n1nncc1-c1ccc(OC(F)(F)F)cc1 [Example 55, 1-{4-[5-chloro-2-methyl-4-(trifluoromethyl)-1H-imidazol-1-yl]-3′-(methylsulfonyl)biphenyl-3-yl}-5-{4-[(trifluoromethyl)oxy]phenyl}-1H-1,2,3-triazole]
175 nM | 90% | Cc1nc(C(F)(F)F)cn1-c1ccc(-c2cccc(S(C)(=O)=O)c2)cc1-n1nncc1-c1ccc(OC(F)(F)F)c(Cl)c1 [Example 53, 5-{3-chloro-4-[(trifluoromethyl)oxy]phenyl}-1-{3′-(methylsulfonyl)-4-[2-methyl-4-(trifluoromethyl)-1H-imidazol-1-yl]biphenyl-3-yl}-1H-1,2,3-triazole]
172 nM | 82% | Cc1nc(C(F)(F)F)cn1-c1ccc(-c2cc(F)c(CO)c(S(C)(=O)=O)c2)cc1-n1nncc1-c1ccc2c(c1)OC(F)(F)O2 [Example 52, {3′-[5-(2,2-difluoro-1,3-benzodioxol-5-yl)-1H-1,2,3-triazol-1-yl]-3-fluoro-5-(methylsulfonyl)-4′-[2-methyl-4-(trifluoromethyl)-1H-imidazol-1-yl]biphenyl-4-yl}methanol]
171 nM | 88% | Cc1ccc(-c2cnnn2-c2cc(-c3cccc(S(C)(=O)=O)c3)ccc2-n2cc(C(F)(F)F)nc2C)cc1 [Example 50, 5-(4-methylphenyl)-1-{3′-(methylsulfonyl)-4-[2-methyl-4-(trifluoromethyl)-1H-imidazol-1-yl]biphenyl-3-yl}-1H-1,2,3-triazole]
164 nM | 105% | Cc1nc(C(F)(F)F)cn1-c1ccc(-c2cccc(S(C)(=O)=O)c2)cc1-n1nncc1-c1ccc(OC(F)(F)F)cc1 [Example 49, 1-{3′-(methylsulfonyl)-4-[2-methyl-4-(trifluoromethyl)-1H-imidazol-1-yl]biphenyl-3-yl}-5-{4-[(trifluoromethyl)oxy]phenyl}-1H-1,2,3-triazole]
158 nM | 89% | Cc1ccc(-c2cnnn2-c2cc(-c3cc(F)c(CO)c(S(C)(=O)=O)c3)ccc2-n2cc(C(F)(F)F)nc2C)cc1 [Example 48, {3-fluoro-3′-[5-(4-methylphenyl)-1H-1,2,3-triazol-1-yl]-5-(methylsulfonyl)-4′-[2-methyl-4-(trifIuoromethyl)-1H-imidazol-1-yl]biphenyl-4-yl}methanol]
158 nM | 107% | Cc1nc(C(F)(F)F)cn1-c1ccc(-c2cccc(S(C)(=O)=O)c2)cc1-n1nncc1-c1ccc(N2CCCC2)cc1 [Example 51, 1-{3′-(methylsulfonyl)-4-[2-methyl-4-(trifluoromethyl)-1H-imidazol-1-yl]biphenyl-3-yl}-5-(4-pyrrolidin-1-ylphenyl)-1H-1,2,3-triazole]
148 nM | 84% | Cc1nc(C(F)(F)F)cn1-c1ccc(-c2cccc(S(C)(=O)=O)c2)cc1-n1nncc1-c1ccc(OC(F)(F)F)c(F)c1 [Example 54, 5-{3-fluoro-4-[(trifluoromethyl)oxy]phenyl)-1-{3′-(methylsulfonyl)-4-[2-methyl-4-(trifluoromethyl)-1H-imidazol-1-yl]biphenyl-3-yl}-1H-1,2,3-triazole]
133 nM | 101% | Cc1nc(C(F)(F)F)cn1-c1ccc(-c2cc(F)c(CO)c(S(C)(=O)=O)c2)cc1-n1nncc1-c1ccc(OC(F)(F)F)c(F)c1 [Example 56, {3-fluoro-3′-(5-{3-fluoro-4-[(trifluoromethyl)oxy]phenyl}-1H-1,2,3-triazol-1-yl)-5-(methylsulfonyl)-4′-[2-methyl-4-(trifluoromethyl)-1H-imidazol-1-yl]biphenyl-4-yl}methanol]
